Source: PubChem BioAssay (NCI)
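The compound was tested at five concentrations on cells cultured in 96-well plates, with a 48-hour exposure period. The concentration for full growth arrest is given as TGI.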

Columns and labels:
Assay in all cases: NCI tumour cell line growth inhibition, 48 h
U251 CNS = test system: U251 CNS
MDA-MB-231 breast = test system: MDA-MB-231 breast
SF-539 CNS = test system: SF-539 CNS
KM12 colon = test system: KM12 colon
OVCAR-3 ovarian = test system: OVCAR-3 ovarian
HCT-15 colon = test system: HCT-15 colon
NCI-H226 lung = test system: NCI-H226 lung
NCI-H522 lung = test system: NCI-H522 lung
786-0 renal = test system: 786-0 renal
SW-620 colon = test system: SW-620 colon
HOP-62 NSCLC = test system: HOP-62 NSCLC
PC-3 prostate = test system: PC-3 prostate
HS 578T breast = test system: HS 578T breast
BT-549 breast = test system: BT-549 breast
NCI/ADR-RES ovarian = test system: NCI/ADR-RES ovarian
IGROV1 ovarian = test system: IGROV1 ovarian
SNB-75 CNS = test system: SNB-75 CNS
MOLT-4 leukemia = test system: MOLT-4 leukemia
HCT-116 colon = test system: HCT-116 colon
A549 NSCLC = test system: A549 NSCLC
SN12C renal = test system: SN12C renal
TK-10 renal = test system: TK-10 renal
EKVX NSCLC = test system: EKVX NSCLC
NCI-H460 lung = test system: NCI-H460 lung
ACHN renal = test system: ACHN renal
CCRF-CEM leukemia = test system: CCRF-CEM leukemia
M14 melanoma = test system: M14 melanoma
UO-31 renal = test system: UO-31 renal
UACC-62 melanoma = test system: UACC-62 melanoma
RPMI-8226 leukemia = test system: RPMI-8226 leukemia
COLO 205 colon = test system: COLO 205 colon
MDA-MB-435 = test system: MDA-MB-435
HL-60(TB) leukemia = test system: HL-60(TB) leukemia
T-47D breast = test system: T-47D breast
OVCAR-8 ovarian = test system: OVCAR-8 ovarian
SF-295 CNS = test system: SF-295 CNS
CAKI-1 renal = test system: CAKI-1 renal
DU-145 prostate = test system: DU-145 prostate
HT29 colon = test system: HT29 colon
OVCAR-4 ovarian = test system: OVCAR-4 ovarian
MALME-3M melanoma = test system: MALME-3M melanoma
SK-OV-3 ovarian = test system: SK-OV-3 ovarian
NCI-H23 lung = test system: NCI-H23 lung
SF-268 CNS = test system: SF-268 CNS
SNB-19 CNS = test system: SNB-19 CNS
SK-MEL-5 melanoma = test system: SK-MEL-5 melanoma
MDA-N = test system: MDA-N
UACC-257 melanoma = test system: UACC-257 melanoma
MCF7 breast = test system: MCF7 breast
SK-MEL-2 melanoma = test system: SK-MEL-2 melanoma
SK-MEL-28 melanoma = test system: SK-MEL-28 melanoma
HCC-2998 colon = test system: HCC-2998 colon
LOX IMVI melanoma = test system: LOX IMVI melanoma
OVCAR-5 ovarian = test system: OVCAR-5 ovarian
K-562 leukemia = test system: K-562 leukemia
RXF 393 renal = test system: RXF 393 renal
SR leukemia = test system: SR leukemia

Cc1cnc2c(c1)C(=O)N(c1ccc(Br)cc1)S2(=O)=O
TGI (U251 CNS): > 100 µM | TGI (MDA-MB-231 breast): > 100 µM | TGI (SF-539 CNS): > 100 µM | TGI (KM12 colon): > 100 µM | TGI (OVCAR-3 ovarian): > 100 µM | TGI (HCT-15 colon): > 100 µM | TGI (NCI-H226 lung): > 100 µM | TGI (NCI-H522 lung): > 100 µM | TGI (786-0 renal): > 100 µM | TGI (SW-620 colon): > 100 µM | TGI (HOP-62 NSCLC): > 100 µM | TGI (PC-3 prostate): > 100 µM | TGI (HS 578T breast): > 100 µM | TGI (BT-549 breast): > 100 µM | TGI (NCI/ADR-RES ovarian): > 100 µM | TGI (IGROV1 ovarian): > 100 µM | TGI (SNB-75 CNS): > 100 µM | TGI (MOLT-4 leukemia): > 100 µM | TGI (HCT-116 colon): > 100 µM | TGI (A549 NSCLC): > 100 µM | TGI (SN12C renal): > 100 µM | TGI (TK-10 renal): > 100 µM | TGI (EKVX NSCLC): > 100 µM | TGI (NCI-H460 lung): > 100 µM | TGI (ACHN renal): > 100 µM | TGI (CCRF-CEM leukemia): > 100 µM | TGI (M14 melanoma): > 100 µM | TGI (UO-31 renal): > 100 µM | TGI (UACC-62 melanoma): > 100 µM | TGI (RPMI-8226 leukemia): > 100 µM | TGI (COLO 205 colon): > 100 µM | TGI (MDA-MB-435): > 100 µM | TGI (HL-60(TB) leukemia): > 100 µM | TGI (T-47D breast): > 100 µM | TGI (OVCAR-8 ovarian): > 100 µM | TGI (SF-295 CNS): > 100 µM | TGI (CAKI-1 renal): > 100 µM | TGI (DU-145 prostate): > 100 µM | TGI (HT29 colon): > 100 µM | TGI (OVCAR-4 ovarian): > 100 µM | TGI (MALME-3M melanoma): > 100 µM | TGI (SK-OV-3 ovarian): > 100 µM | TGI (NCI-H23 lung): > 100 µM | TGI (SF-268 CNS): > 100 µM | TGI (SNB-19 CNS): > 100 µM | TGI (SK-MEL-5 melanoma): > 100 µM | TGI (MDA-N): > 100 µM | TGI (UACC-257 melanoma): > 100 µM | TGI (MCF7 breast): > 100 µM | TGI (SK-MEL-2 melanoma): > 100 µM | TGI (SK-MEL-28 melanoma): > 100 µM | TGI (HCC-2998 colon): > 100 µM | TGI (LOX IMVI melanoma): > 100 µM | TGI (OVCAR-5 ovarian): > 100 µM

O=C(O)c1ccc(Nc2nc3ccc(C(F)(F)F)cc3nc2-c2ccccc2)cc1
TGI (U251 CNS): > 100 µM | TGI (SF-539 CNS): 90.8 µM | TGI (KM12 colon): > 10 µM | TGI (OVCAR-3 ovarian): 72.6 µM | TGI (HCT-15 colon): 57.3 µM | TGI (NCI-H226 lung): > 100 µM | TGI (NCI-H522 lung): > 100 µM | TGI (786-0 renal): > 100 µM | TGI (SW-620 colon): > 100 µM | TGI (HOP-62 NSCLC): > 100 µM | TGI (PC-3 prostate): > 100 µM | TGI (HS 578T breast): > 100 µM | TGI (NCI/ADR-RES ovarian): 96.2 µM | TGI (IGROV1 ovarian): > 100 µM | TGI (SNB-75 CNS): > 100 µM | TGI (K-562 leukemia): > 100 µM | TGI (MOLT-4 leukemia): > 100 µM | TGI (HCT-116 colon): > 100 µM | TGI (A549 NSCLC): > 100 µM | TGI (SN12C renal): > 100 µM | TGI (TK-10 renal): 52.4 µM | TGI (EKVX NSCLC): > 100 µM | TGI (NCI-H460 lung): > 100 µM | TGI (ACHN renal): > 100 µM | TGI (RXF 393 renal): > 100 µM | TGI (CCRF-CEM leukemia): > 100 µM | TGI (M14 melanoma): > 100 µM | TGI (UO-31 renal): 55.1 µM | TGI (UACC-62 melanoma): 35.8 µM | TGI (RPMI-8226 leukemia): > 100 µM | TGI (MDA-MB-435): > 100 µM | TGI (HL-60(TB) leukemia): 66.3 µM | TGI (T-47D breast): 52.8 µM | TGI (OVCAR-8 ovarian): > 100 µM | TGI (SF-295 CNS): > 100 µM | TGI (CAKI-1 renal): > 100 µM | TGI (DU-145 prostate): > 10 µM | TGI (HT29 colon): > 10 µM | TGI (MALME-3M melanoma): > 100 µM | TGI (NCI-H23 lung): > 100 µM | TGI (SF-268 CNS): > 100 µM | TGI (SR leukemia): > 100 µM | TGI (SNB-19 CNS): > 100 µM | TGI (SK-MEL-5 melanoma): > 100 µM | TGI (MDA-N): > 100 µM | TGI (UACC-257 melanoma): > 100 µM | TGI (MCF7 breast): > 100 µM | TGI (SK-MEL-28 melanoma): > 100 µM | TGI (HCC-2998 colon): 40.3 µM | TGI (LOX IMVI melanoma): > 100 µM | TGI (OVCAR-5 ovarian): > 100 µM
